Here are results for eleven compounds from patent US4080466A, “Pharmaceutical compositions containing 4-hydroxyl-1,3-dithiolan-2-ylidene malonates” (Nihon Nohyaku Co., Ltd., priority 1976, dated 1978).

The subject of experiment [1] is acute liver damage induced by carbon tetrachloride. The experiment is described as follows: Protective Effect on Acute Liver Damage associated with Centrilobular Necrosis (carbon tetrachloride). The experiment is classed as in vivo, mice (dd-strain). Particulars: 250 mg/kg oral, average of 5 to 6 mice; for Liver damage index: 6 h before CCl4 (0.05 ml/kg oral), score 0 Normal, 2 slight, 4 clear, 6 heavy damage; for p-GPT (plasma glutamic-pyruvic transaminase activity): 6 h before CCl4, 24 h after CCl4, values over 1,000 regarded as 1,000. The source says: Carbon tetrachloride (CCl4) administration induces centrilobular necrosis of the liver associated with loss of diphosphopyridine nucleotide, hepatic glycogen, coenzyme A and increase in neutral fat. Release of several enzymes from the hepatocytes, and increase of enzyme activities in the plasma are recognized as the result of the damage of the liver. A suitable means for evaluating the degree of damage induced by CCl4 or the degree of protection afforded by drugs is to study the plasma glutamic-pyruvic transminase (p-GPT) activity.
Methods: The test compounds were dissolved or suspended in olive oil and administered orally at the dose of 250 mg/kg to the mice (Four-week-old male mice-dd strain). After 6 hours, CCl4 was administered orally (0.05 ml/kg as olive oil solution). Animals were killed 24 hours after CCl4 administration, and the liver was grossly observed. The plasma was obtained by centrifugation. Activities of p-GPT were determined by the method of Reitman and Frankel and expressed in Karmen units.
Score for liver damage index was as follows:
4 Clearly observable damage
Each figure indicates average of 5 to 6 mice. Values of p-GPT over 1,000 Karmen unit regarded as 1,000 for calculation of average for convenience.

The subject of experiment [2] is chronic liver damage induced by thioacetamide. Briefly: Therapeutic Effect on Chronic Liver Damage (thioacetamide), BSP test. The experiment is classed as in vivo, rats (Spraque Dawley strain). As to conditions: normal diet + 0.2% of compound after 12 times TAA 100 mg/kg. Here is the method:
In the tests of this Example, TAA was repeatedly administered to animals to prepare test animals suffering from somewhat chronic liver damages, and then the present compounds were administered thereto to know whether or not the compounds were effective against chronic hepatitis.
The degree of the liver damage and the therapeutic effects of the compounds were evaluated according to BSP test. The BSP test is a method in which BSP (sulfobromophthalein sodium), a dye known to be quickly metabolized in and excreted from the liver, is intravenously injected into animals and, after a definite period of time, the blood is taken out to measure the amount of BSP remaining in the plasma. In case the animals are suffering from the lever damage, the dye will remain, according to the degree of the damage, at the stage where a major portion of BSP metabolized and excreted in the case of normal animals.
Five groups of rats (Spraque Dawley strain) were treated as follows:
Group A: The rats were orally administered with 100 mg/kg of thioacetamide,at 3 days intervals for 36 days (12 times of the administration), then were submitted for 10 days to a normal diet.
Group B: The rats were orally administered with 100 mg/kg of thioacetamide at 3 days intervals for 36 days (12 times of the administration), then were submitted for 10 days to the normal diet + 0.2% of compound 4.
Group C: The rats were orally administered with 100 mg/kg of thioacetamide at 3 days intervals for 36 days (12 times of the administration), then were submitted for 10 days to the normal diet + 0.2% of compound 2.
Group D: The rats were orally administered with 100 mg/kg of thioacetamide at 3 days intervals for 36 days (12 times of the administration), then were submitted for 10 days to the normal diet + 0.2% of anethol trithion.
Group E: The rats were submitted to the normal diet as the control.
Five rats were sacrificed from each group at appropriate intervals for BSP (sulfobromophthalein) test, the results of which were shown as amounts (mg) of BSP remaining in 1 dl of plasma.

Experiment [3] deals with acute liver damage induced by allyl alcohol. Briefly: Protective Effect on Acute Liver Damage associated with Periportal Necrosis (allyl alcohol), BSP test. The experiment is classed as in vivo, mouse (dd-strain). Particulars: 100 mg/kg oral, 6 h before allyl alcohol (0.075 mg/kg oral); 24 h. As for the experimental part: The compund of this invention or anethol trithion was orally administered to the male mouse (4 week-old, dd-strain) at the dose of 100 mg/kg. Six hours after it, allyl alcohol was orally administered at the dose of 0.075 mg/kg. Twenty four hours after it, the animals were sacrificed to collect blood samples.

Experiment [4] concerns acute hepatitis induced by D-galactosamine. Briefly: Protective Effect on Acute Hepatitis associated with Mesenchymal Reaction and Discrete Lobular Necrosis (D-galactosamine). The experiment is classed as in vivo, rat (SD strain). Particulars: 100 mg/kg oral, 6 h before D-galactosamine 600 mg/kg i.p. (+ 300 mg/kg). As for the experimental part:
D-Galactosamine is a compound which induces a discrete lobular necrosis associated with mesenchymal reaction similar to the change observed in human viral hepatitis, so that it is frequently used in producing a model for viral hepatitis.
The compound of this invention or anethol trithion was administered orally to the male rat (SD strain) at the dose of 100 mg/kg. Six hours after it, D-galactosamine was intraperitoneally administered at the dose of 600 mg/kg. Four hours after it, an additional 300 mg/kg was administered intraperitoneally. Eight hours after it, the animals were sacrificed to collect the blood samples. P-GPT activity and triglyceride in the liver were measured to evaluate the effect of the compound of this invention.

A further experiment concerns bile flow. The experiment is described as follows: Cholagogic Action: effect on bile flow. The experiment is classed as in vivo, rats (SD-JCL strain). As to conditions: 200 mg/kg oral; for Bile flow: before treatment = 100. Here is the method: (§1) Drugs as choleresis are used for patients to improve bile flow. In the present example, the effect of the compound of the invention on the quantities of bile and biliary salt is investigated. Methods:
(§2) The male rats (4 week-aged, SD-JCL strain) were anesthetized with sodium pentobarbital (37.5 mg/kg, intraperitoneal injection). The abdominal cavity was opened through a midline incision. The common bile duct was catheterized with polyethylene tube o.d. 0.8 mm. The catheter was brought to the outside through the abdominal incision would prior to closing. Bile was collected from the catheter continuously with time intervals of one hour. The quantity of bile produced in one hour was determined by weighing and that of biliary salt was determined by enzymatic method (Ikagaku Jikkenho Koza 1B, Biological Constituents II, edited by Tamio YAMAKAWA). The amount of biliary salt was represented in the term of cholic acid equivalent.
(§3) In the representation of the results, the quantities of bile and biliary salt produced in one hour prior to the administration of drug were taken as 100. The compound of this invention was orally administered at the dose of 200 mg/kg. As reference, anethol trithion was used.

Experiment [5] deals with excretion of biliary salt. Briefly: Cholagogic Action: effect on the excretion of biliary salt. Type of experiment: in vivo, rats (SD-JCL strain). As to conditions: 200 mg/kg oral, before treatment = 100. Here is the method: as §1, §2, §3
Experiment [6] relates to fatty liver induced by ethionine. The experiment is described as follows: Effect on Fatty Liver (ethionine). Type of experiment: in vivo, mouse (dd-strain). As to conditions: 24 h, 10 animals. The text has this: But, the fatty liver is grouped into a couple of patterns from the mechanism of lipid accumulation or metabolism of lipoprotein in the liver. Ethionine is a typical example which induces first pattern of fatty liver. It inhibits RNA and protein synthesis and destructs polysome of the liver cell. Fatty liver is induced by inhibition of the protein synthesis and disturbance of lipoprotein secretion.
Usually, fatty liver is closely related to the accumulation of triglyceride in the liver. In the present example, the degree of fatty liver and protective or therapeutic effect against the fatty liver was evaluated by measurement of triglyceride content in the liver. Methods:
The compounds of this invention and methionine were independently dissolved or suspended into olive oil and administered orally to 4 week-old male mouse (dd-strain) at the dose of 250 mg/kg. One hour before it, simultaneously to it, or one hour after it, ethionine dissolved in equimolar NaOH solution was administered intraperitoneally at the dose of 200 mg/kg. Twenty four hours after the administration of ethionine, the animals were sacrificed and triglyceride content in the liver was determined by chromotropic acid method.

The subject of experiment [7] is fatty liver induced by carbon tetrachloride. Briefly: Therapeutic Effect on Fatty Liver (carbon tetrachloride). Type of experiment: in vivo, rats (SD strain). Here is the method:
Methods: […] The treated animals were left for 3 days after the last administration to maximize the manifestation of fatty liver. […] It was orally given everyday for 10 days at the dose of 50 or 250 mg/kg. On the 11th day, the animals were sacrificed. The therapeutic effect was evaluated by determining the content of liquid in the liver (triglyceride and total lipid) and examining the histopathological changes. Triglyceride and total lipid were determined colorimetrically by chromotropic acid method and Bragdon's oxidation method, respectively. Indices for the histopathological change is as follows: […]

For the compound `COc1ccc(-c2cc(=S)ss2)cc1` [Anethol trithion, reference compound], the Liver damage index in experiment [1] was 1.6. In addition, in experiment [1], the “p-GPT (plasma glutamic-pyruvic transaminase activity)” value is 38 Karmen units. For the same compound, the “BSP remaining in plasma” value in experiment [2] (2 days) amounted to 9.7 ± 4.1 mg/dL; in experiment [2] (5 days), 7.3 ± 3.4 mg/dL; in experiment [2] (10 days), 0.9 ± 0.1 mg/dL. Also, the “BSP (residual quantity)” value in experiment [3] was 19.3 ± 4.6. The compound also came in with a Triglyceride in liver in experiment [4] of 9.2 ± 1.5 mg/g. The same compound showed a p-GPT in experiment [4] of 106 ± 30 Karmen unit. The Bile flow with bile flow (1 hour after treatment) is given as 114 ± 15; in the experiment with bile flow (2 hours after treatment), 114 ± 15; in the experiment with bile flow (3 hours after treatment) it was 102 ± 11; with bile flow (4 hours after treatment) it was 95 ± 7.7; in the experiment with bile flow (5 hours after treatment), 86 ± 6.6. Further, the “Quantity of total excreted bile relative to control” value in the experiment on bile flow (5 hours after administration) is on record as 1.10 times. For the same compound, the “Excretion of biliary salt” value in experiment [5] (1 hour after treatment) came to 108 ± 12; in experiment [5] (2 hours after treatment), 89 ± 11; in experiment [5] (3 hours after treatment), 66 ± 3.8; in experiment [5] (4 hours after treatment), 47 ± 3.0; in experiment [5] (5 hours after treatment), 3.3 ± 4.0.

For the compound `CC(=O)OC1CSC(=C(C(=O)OC(C)C)C(=O)OC(C)C)S1` (centres unmarked) [Compound 7, Diisopropyl 4-acetoxy-1,3-dithiolan-2-ylidene malonate], in experiment [1], the Liver damage index is recorded as 0.4 and the “p-GPT (plasma glutamic-pyruvic transaminase activity)” value stood at 80 Karmen units.

Take `NC(=O)CCCCC1CCSS1` (centres unmarked) [Thioctic acid amide, reference compound]: in experiment [1], the Liver damage index was found to be 4.8 and the “p-GPT (plasma glutamic-pyruvic transaminase activity)” value amounted to 763 Karmen units.

Turning to `CCCOC(=O)C(C(=O)OCCC)=C1SCC(OC(C)=O)S1` (centres unmarked) [Compound 9, Di-n-propyl-4-acetoxy-1,3-dithiolan-2-ylidene malonate], in experiment [1], the Liver damage index turned out to be 0.8 and the “p-GPT (plasma glutamic-pyruvic transaminase activity)” value is 102 Karmen units.

As to `ClC(Cl)(Cl)Cl` [Carbon tetrachloride, reference compound], in experiment [1], the Liver damage index stood at 5.2 and the “p-GPT (plasma glutamic-pyruvic transaminase activity)” value is > 1,000 Karmen units.

In the case of `CCOC(=O)C(C(=O)OCC)=C1SCC(OC(=O)CC)S1` (centres unmarked) [Compound 6, Diethyl 4-propionyloxy-1,3-dithiolan-2-ylidene malonate], in experiment [1], the Liver damage index stood at 1.4 and the “p-GPT (plasma glutamic-pyruvic transaminase activity)” value is given as 210 Karmen units.

Take `CSCC[C@H](N)C(=O)O` [Methionine, reference compound]: the Triglyceride in experiment [6] (250 mg/kg oral, simultaneous with ethionine (0 hr)) worked out at 10.8 ± 0.88 mg/g-liver. In experiment [7] (250 mg/kg oral, 10 days), this compound registered a Total lipid of 156.8 ± 23.8 mg/g-liver and a Triglyceride of 42.7 ± 7.2 mg/g-liver. Also, in experiment [7] (50 or 250 mg/kg oral), the “therapeutic effect on fatty liver (in words)” value is recorded as “hardly exhibited a therapeutic effect”. Moreover, the “Degree of fatty liver (histopathological examination)” value in experiment [7] (dose not printed in Table 8, one symbol per animal) is given as “± ± ++ ++ ++ + +”.

As for `CCSCC[C@H](N)C(=O)O` [Ethionine, reference compound], the Triglyceride in experiment [6] (ethionine alone (positive control), 200 mg/kg i.p.) stood at 15.6 ± 1.34 mg/g-liver.

For `CC(C)COC(=O)C(C(=O)OCC(C)C)=C1SCC(O)S1` (centres unmarked) [Compound 3, Diisobutyl 4-hydroxy-1,3-dithiolan-2-ylidene malonate], in experiment [1], the Liver damage index was found to be 0.3 and the “p-GPT (plasma glutamic-pyruvic transaminase activity)” value was 52 Karmen units.

For the compound `CCC(=O)OC1CSC(=C(C(=O)OC(C)C)C(=O)OC(C)C)S1` (centres unmarked) [Compound 8, Diisopropyl 4-propionyloxy-1,3-dithiolan-2-ylidene malonate], in experiment [1], the Liver damage index was determined as 0.6 and the “p-GPT (plasma glutamic-pyruvic transaminase activity)” value is reported as 62 Karmen units.

For the compound `CCOC(=O)C(C(=O)OCC)=C1SCC(OC(C)=O)S1` (centres unmarked) [Compound 5, Diethyl 4-acetoxy-1,3-dithiolan-2-ylidene malonate], in experiment [1], the Liver damage index is 1.2 and the “p-GPT (plasma glutamic-pyruvic transaminase activity)” value was 106 Karmen units.
